Data published in patent US7968721B2, “Large-scale synthesis of selective androgen receptor modulators” (University of Tennessee Research Foundation, priority 2003, dated 2011).

Key:
androgen receptor = test system: androgen receptor
From the text: Assays to determine whether the compounds of the present invention are AR agonists or antagonists are well known to a person skilled in the art. For example, AR agonistic activity can be determined by monitoring the ability of the SARM compounds to maintain and/or stimulate the growth of AR containing tissue such as prostate and seminal vesicles, as measured by weight. AR antagonistic activity can be determined by monitoring the ability of the SARM compounds to inhibit the growth of AR containing tissue.

spermatogenesis = conditions: weekly intramuscular injections, men receiving therapy; cited from earlier work

Row | SMILES | action at the androgen receptor in vivo (androgen receptor) | anabolic and androgenic effects in vivo (androgen receptor) | men with azoospermia or severe oligospermia (less than 3 million sperm per ml) and infertility (spermatogenesis) [%]
1 | CC(=O)Nc1ccc(OC[C@](C)(O)C(=O)Nc2ccc([N+](=O)[O-])c(C(F)(F)F)c2)cc1 [Compound (1), 3-[4-(acetylamino)phenoxy]-2-Hydroxy-2-methyl-N-[3trifluoromethyl-4-nitro-phenyl)-proprionamide] | partial agonist | strong anabolic and weakly androgenic effects | 
2 | CCCCCCC(=O)O[C@H]1CC[C@H]2[C@@H]3CCC4=CC(=O)CC[C@]4(C)[C@H]3CC[C@]12C [testosterone enanthate] |  |  | 98
